The results in this text go back to patent US11801242B2, “Compositions and methods for adjuvant cancer therapeutics” (DUKE UNIVERSITY, priority 2018, dated 2023).

Assay [1] concerns the target T1, chimeric REV1 CTD protein (Mus musculus, UniProt Q920Q2).
T1 construct: the mouse REV1 CTD (F1150-T1249); His10-GB1 (TEV site) (N, cleaved yes); made in house; host or cells: E. coli BL21 Star (DE3)
T1 sequence (Q920Q2 1150-1249): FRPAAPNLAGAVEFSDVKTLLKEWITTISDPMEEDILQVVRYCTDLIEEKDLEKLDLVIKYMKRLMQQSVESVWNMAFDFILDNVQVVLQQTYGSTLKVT
Briefly: Isothermal titration calorimetry. Type of assay: binding. To be noted: 25° C. As for the experimental part: Isothermal titration calorimetry measurements were carried out using a MicroCal VP-ITC instrument at 25° C., with the chimeric REV1 CTD protein (300 μM) in the syringe and compound (15 μM) in the cell. Compounds were initially dissolved in 50% MPD. Protein and compound samples were diluted in a buffer containing 50 mM HEPES pH 7.5, 50 mM KCl, 2 mM TCEP, 2% DMSO and 0.1% MPD. Microcal Origin 7 software was used to analyze the data.

In assay [2] the target is T2, chimeric FLAG-tagged POL κ RIR-REV1 CTD (Mus musculus, UniProt Q920Q2).
T2 construct: the mouse REV1 CTD (F1150-T1249); His10-GB1 (TEV site) (N, cleaved yes); made in house; host or cells: E. coli BL21 Star (DE3)
T2 sequence (Q920Q2 1150-1249): T1 sequence (Q920Q2 1150-1249)
As to the kind of experiment: In vitro DSS-crosslinking, Western blot. The conditions noted are these: 100 μM RE01 NaOH salt. As to the method:
Samples of the chimeric FLAG-tagged POL κ RIR-REV1 CTD in the presence of 0 μM or 100 μM RE01 were treated with increasing molar ratios of DSS (disuccinimidyl suberate) and analyzed by SDS-PAGE followed by Western blotting with anti-FLAG antibody. Monomer and crosslinked dimer bands are labeled.
More specifically, chimeric FLAG-tagged POL κ RIR-REV1 CTD in a buffer containing 25 mM HEPES (pH 7.0), 100 mM KCl, and 4 mM TCEP was mixed with either MPD (control) or RE01 NaOH salt in MPD to yield a reaction solution containing 1 μM protein, 5% MPD, and either 0 or 100 μM compound. Appropriate dilutions of DSS in DMSO were added to the reaction mixture to yield DSS-to-protein molar ratios of 0:1, 0.5:1, 1:1, 5:1, 10:1, and 50:1 and a final DMSO concentration of 5% (v/v). The reaction mixture was incubated for 30 min at room temperature and then quenched by addition of 1 M Tris (pH 8.5). The SDS-loading dye containing 4 mM TCEP and 10.8 mM iodoacetamide (to block free cysteines) was added to each reaction mixture, and the samples were loaded onto a Pre-cast 4-20% gradient SDS-PAGE gel (Bio-Rad). The gel samples were transferred to a 0.45 μm nitrocellulose membrane (Bio-Rad) for Western blotting with the anti-FLAG primary antibody M2 (Sigma-Aldrich) and the HRP-conjugated secondary antibody (LI-COR) and imaging with the LI-COR Odyssey system.

The next assay has as its system Rev1^+/+ MEF cells. As to the kind of experiment: Clonogenic survival assay. Type of assay: cell-based, mouse. To be noted: RE01 1.5 μM + cisplatin 0.5 μM vs cisplatin alone. As to the method:
300 cells were plated in triplicate in 6-well plates for 24 hours. Cisplatin (cis-diammineplatinum(II) dichloride, Sigma-Aldrich) was added to relevant wells for 24 hours. All plates were incubated at 37° C. for 24 hours. Media were changed the next day and in fresh media RE01 (at 1.5 μM concentration) was added to untreated or cisplatin-treated cells for another 24 hours. Media were changed at the end of these combination treatments, and cells were allowed to recover for 7 days. To stain the resulting colonies, media were aspirated and the fixative (50% methanol and 10% glacial acetic acid) was added for 10 minutes, followed by the addition of 0.02% Coomassie brilliant blue R-250 stain (ThermoFisher) in methanol: acetic acid: water in a ratio of 46.5:7:46.5 (v/v/v). Colonies that stained blue and contained at least 40 cells were counted. Relative cell survival or colony formation was calculated by dividing colony counts from treated samples by the DMSO or untreated controls.

Broadly, the Kd is the concentration at which binding is half-saturated. In assay [1], `CC(C)CC(=O)c1c(Nc2ccc(Cl)cc2Cl)[nH]c2c(Cl)ccc([N+](=O)[O-])c2c1=O` [RE01, 8-chloro-2-((2,4-dichlorophenyl)amino)-3-(3-methylbutanoyl)-5-nitroquinolin-4(1H)-one] came in with a protein-to-ligand stoichiometry of 2.04±0.03. Moreover, the Kd in assay [1] (read-out: dissociation constant (Kd)) came to 420 ± 110 nM. Also, the “dimerization of the REV1 CTD in solution” value in assay [2] was “promotes the dimerization”. Further, the colony forming ability entry in the assay with Rev1^+/+ MEF cells is “significantly reduced”.
